Holding throughout (format): functional
Experiment [1] has as its system Pyricularia oryzae. Put plainly: Antifungal activity against drug-sensitive Magnaporthe oryzae infected six-leaf stage of rice plant assessed as reduction of susceptible lesion number per leaf area at 2 time MIC treated 24 hr before fungal infection measured after 6 days relative to control. Further details: scale not given: the % may be the effect or the level left.

Experiment [2] has as its system Pyricularia oryzae. Briefly: Antifungal activity against drug-sensitive Magnaporthe oryzae infected six-leaf stage of rice plant assessed as reduction of disease recovery at 2 time MIC treated 24 hr before fungal infection measured after 6 days relative to control. Further details: scale not given: the % may be the effect or the level left.
Experiment [3] has as its system Pyricularia oryzae. Put plainly: Antifungal activity against Magnaporthe oryzae infected six-leaf stage of rice plant assessed susceptible lesion number per leaf area at 8 time MIC treated 24 hr before fungal infection measured after 24 hr.
The test system of experiment [4] is Pyricularia oryzae. Put plainly: Antifungal activity against Magnaporthe oryzae infected six-leaf stage of rice plant assessed susceptible lesion number per leaf area at 4 time MIC treated 24 hr before fungal infection measured after 24 hr.
The subject of experiment [5] is Pyricularia oryzae. Put plainly: Antifungal activity against Magnaporthe oryzae infected six-leaf stage of rice plant assessed susceptible lesion number per leaf area at 2 time MIC treated 24 hr before fungal infection measured after 24 hr.
Experiment [6] relates to Pyricularia oryzae. Briefly: Antifungal activity against Magnaporthe oryzae infected six-leaf stage of rice plant assessed susceptible lesion number per leaf area at MIC treated 24 hr before fungal infection measured after 24 hr.
In experiment [7] the test system is Pyricularia oryzae. Briefly: Antifungal activity against drug-sensitive Magnaporthe oryzae infected six-leaf stage of rice plant assessed susceptible lesion number per leaf area treated 24 hr before fungal infection measured after 24 hr.
Experiment [8] relates to Pyricularia oryzae. Put plainly: Antifungal activity against drug-sensitive Magnaporthe oryzae infected six-leaf stage of rice plant assessed as disease recovery treated 24 hr before fungal infection measured after 24 hr.
Experiment [9] relates to Pyricularia oryzae. Briefly: Antifungal activity against Magnaporthe oryzae infected six-leaf stage of rice plant assessed as disease recovery at MIC treated 24 hr before fungal infection measured after 24 hr.
For experiment [10], the system named is Pyricularia oryzae. Put plainly: Antifungal activity against Magnaporthe oryzae infected six-leaf stage of rice plant assessed as disease recovery at 2 time MIC treated 24 hr before fungal infection measured after 24 hr.
For experiment [11], the system named is Pyricularia oryzae. Put plainly: Antifungal activity against Magnaporthe oryzae infected six-leaf stage of rice plant assessed as disease recovery at 4 time MIC treated 24 hr before fungal infection measured after 24 hr.
Experiment [12] concerns Pyricularia oryzae. Briefly: Antifungal activity against Magnaporthe oryzae infected six-leaf stage of rice plant assessed as disease recovery at 8 time MIC treated 24 hr before fungal infection measured after 24 hr.

Molecules are shown by their SMILES.

As for `CCOP(=O)(Sc1ccccc1)Sc1ccccc1` [EDIFENPHOS], the Activity in [1] amounted to 63.5%; in experiment [2], 55.6%; in experiment [3] it was 0.03 cm2; in experiment [4] it was 0.07 cm2; in [5], 0.14 cm2; in experiment [6], 0.19 cm2. Also, the Activity is listed as 0.1 cm2 in experiment [7]; 0.27% in experiment [8]; 0.49% in experiment [9]; 0.35% in experiment [10]; 0.18% in experiment [11]; 0.08% in experiment [12].
Turning to `CC(C)OP(=O)(OC(C)C)SCc1ccccc1` [IPROBENFOS], the Activity in experiment [1] turned out to be 28.1%; in [2], 28.8%; in experiment [3], 0.39 cm2; in [4] it was 0.93 cm2; in [5], 1.13 cm2; in experiment [6] it was 1.28 cm2. Further, the Activity in experiment [7] is on record as 0.73 cm2; in experiment [8] it was 0.8%; in [9], 1.23%; in [10], 1.17%; in experiment [11], 0.87%; in [12] it was 0.45%.

The record behind these values is ChEMBL document CHEMBL3045284 (Crop Prot, 2009).
